Data: ChEMBL document CHEMBL3045689, “Synthesis of novel 2-(3-aryl-sydnon-4-ylidene)-5-substituted-[1,3,4]-thiadiazolylamines and [1,3,4]-thiadiazol-2-yl-3-oxo-[1,2,4]-triazoles as antimicrobial agents” (2012)
Converted amounts (≈) assume the structure as drawn.

Experiments:
Assay type in all cases: functional
Aspergillus niger = test: Antifungal activity against Aspergillus niger after 18 to 24 hr by microbroth dilution method
Candida albicans = test: Antifungal activity against Candida albicans after 18 to 24 hr by microbroth dilution method
Bacillus cereus = test: Antibacterial activity against Bacillus cereus after 18 to 24 hr by microbroth dilution method
Escherichia coli = test: Antibacterial activity against Escherichia coli after 18 to 24 hr by microbroth dilution method

Compound | MIC (Aspergillus niger) [µg/mL] | MIC (Candida albicans) [µg/mL] | MIC (Bacillus cereus) [µg/mL] | MIC (Escherichia coli) [µg/mL]
Cc1nn(-c2ccccc2)c(=O)n1-c1nnc(-c2ccccc2)s1 | 62.5 (≈ 186 µM) | 31.2 (≈ 93.2 µM) | 125 (≈ 373 µM) | 31.2 (≈ 93.2 µM)
Cc1ccc(-n2nc(C)n(-c3nnc(-c4ccccc4)s3)c2=O)cc1 | 62.5 (≈ 179 µM) | 125 (≈ 358 µM) | 62.5 (≈ 179 µM) | 15.6 (≈ 44.6 µM)
COc1ccc(-n2nc(C)n(-c3nnc(-c4ccccc4)s3)c2=O)cc1 | 62.5 (≈ 171 µM) | 31.2 (≈ 85.5 µM) | 125 (≈ 342 µM) | 15.6 (≈ 42.7 µM)
Cc1nn(-c2ccc(Cl)cc2)c(=O)n1-c1nnc(-c2ccccc2)s1 | 15.6 (≈ 42.2 µM) | 7.8 (≈ 21.1 µM) | 15.6 (≈ 42.2 µM) | 31.2 (≈ 84.5 µM)
Cc1nnc(-n2c(C)nn(-c3ccccc3)c2=O)s1 | 62.5 (≈ 229 µM) | 31.2 (≈ 114 µM) | 125 (≈ 457 µM) | 62.5 (≈ 229 µM)
Cc1ccc(-n2nc(C)n(-c3nnc(C)s3)c2=O)cc1 | 62.5 (≈ 218 µM) | 62.5 (≈ 218 µM) | 62.5 (≈ 218 µM) | 62.5 (≈ 218 µM)
COc1ccc(-n2nc(C)n(-c3nnc(C)s3)c2=O)cc1 | 7.8 (≈ 25.7 µM) | 31.2 (≈ 103 µM) | 31.5 (≈ 104 µM) | 15.6 (≈ 51.4 µM)
Cc1nnc(-n2c(C)nn(-c3ccc(Cl)cc3)c2=O)s1 | 7.8 (≈ 25.3 µM) | 7.8 (≈ 25.3 µM) | 15.6 (≈ 50.7 µM) | 15.6 (≈ 50.7 µM)
[O-]c1on[n+](-c2ccccc2)c1/C=N/c1nnc(-c2ccccc2)s1 | 125 (≈ 358 µM) | 31.2 (≈ 89.4 µM) | 125 (≈ 358 µM) | 31.2 (≈ 89.4 µM)
Cc1ccc(-[n+]2noc([O-])c2/C=N/c2nnc(-c3ccccc3)s2)cc1 | 125 (≈ 344 µM) | 3.9 (≈ 10.7 µM) | 125 (≈ 344 µM) | 62.5 (≈ 172 µM)
COc1ccc(-[n+]2noc([O-])c2/C=N/c2nnc(-c3ccccc3)s2)cc1 | 62.5 (≈ 165 µM) | 62.5 (≈ 165 µM) | 62.5 (≈ 165 µM) | 62.5 (≈ 165 µM)
[O-]c1on[n+](-c2ccc(Cl)cc2)c1/C=N/c1nnc(-c2ccccc2)s1 | 31.2 (≈ 81.4 µM) | 7.8 (≈ 20.3 µM) | 62.5 (≈ 163 µM) | 31.2 (≈ 81.4 µM)
Cc1nnc(/N=C/c2c([O-])on[n+]2-c2ccccc2)s1 | 125 (≈ 435 µM) | 31.2 (≈ 109 µM) | 250 (≈ 870 µM) | 62.5 (≈ 218 µM)
Cc1ccc(-[n+]2noc([O-])c2/C=N/c2nnc(C)s2)cc1 | 125 (≈ 415 µM) | 31.2 (≈ 104 µM) | 125 (≈ 415 µM) | 62.5 (≈ 207 µM)
COc1ccc(-[n+]2noc([O-])c2/C=N/c2nnc(C)s2)cc1 | 125 (≈ 394 µM) | 7.8 (≈ 24.6 µM) | 125 (≈ 394 µM) | 15.6 (≈ 49.2 µM)
Cc1nnc(/N=C/c2c([O-])on[n+]2-c2ccc(Cl)cc2)s1 | 125 (≈ 389 µM) | 7.8 (≈ 24.2 µM) | 62.5 (≈ 194 µM) | 62.5 (≈ 194 µM)
O=C(N[C@H](CO)[C@H](O)c1ccc([N+](=O)[O-])cc1)C(Cl)Cl [CHLORAMPHENICOL] | – | – | 12.5 (≈ 38.7 µM) | 1.95 (≈ 6.03 µM)
CC(=O)N1CCN(c2ccc(OCC3COC(Cn4ccnc4)(c4ccc(Cl)cc4Cl)O3)cc2)CC1 (stereo not drawn) [KETOCONAZOLE] | 0.97 (≈ 1.83 µM) | 0.97 (≈ 1.83 µM) | – | –
